Cn1c(=O)cc(N2CCC[C@@H](N)C2)n(Cc2ccccc2C#N)c1=O.O=C(O)c1ccccc1
solubility (mole fraction)
Settings | 278.15 K | 283.15 K | 288.15 K | 293.15 K | 298.15 K | 303.15 K | 308.15 K | 313.15 K | 318.15 K
in DMF | 0.00568 | 0.00686 | 0.00824 | 0.00984 | 0.0117 | 0.0138 | 0.0162 | 0.019 | 0.0222
in acetone | 0.00259 | 0.00293 | 0.00331 | 0.00373 | 0.00419 | 0.0047 | 0.00525 | 0.00587 | 0.00654
in acetonitrile | 0.000102 | 0.000145 | 0.000175 | 0.000228 | 0.000292 | 0.000368 | 0.000475 | 0.000583 | 0.000725
in ethanol | 0.000355 | 0.000447 | 0.000554 | 0.000682 | 0.000822 | 0.00102 | 0.00122 | 0.00147 | 0.00176
in isopropanol | 1.9e-05 | 3e-05 | 4.2e-05 | 6.3e-05 | 8.8e-05 | 0.000127 | 0.000175 | 0.000244 | 0.000334
in methanol | 0.00239 | 0.00269 | 0.00302 | 0.00339 | 0.00379 | 0.00423 | 0.00472 | 0.00525 | 0.00583
in n-propanol | 6.1e-05 | 8.2e-05 | 0.000113 | 0.000156 | 0.000209 | 0.000278 | 0.000367 | 0.000477 | 0.000621
in water | 0.000838 | 0.000915 | 0.000999 | 0.00109 | 0.00119 | 0.00129 | 0.0014 | 0.00153 | 0.00166

Reference: BigSolDB 2.1
